Where a name gives a salt, the structure may show the parent alone.
Biological target: Factor Xa (Homo sapiens, UniProt P00742)
Assay: Enzyme assay with purified enzyme and peptide-p-nitroanilide substrate (IC50, apparent Ki)
Assay type: biochemical
Conditions: library product after deprotection with 20% TFA; read-out: IC50 against Factor Xa
Experimental: All enzyme assays are carried out at room temperature in 96-well microtiter plates using a final enzyme concentration of 1 nM. The concentrations of factor Xa and thrombin are determined by active site titration and the concentrations of all other enzymes are based on the protein concentration supplied by the manufacturer. Compounds according to the invention are dissolved in DMSO, diluted with their respective buffers and assayed at a maximal final DMSO concentration of 1.25%. Compound dilutions are added to wells containing buffer and enzyme and pre-equilibrated for […]. The enzyme reactions are initiated by the addition of substrate and the color developed from the hydrolysis of the peptide-p-nitroanilide substrates is monitored continuously for 5 minutes at 405 nm on a Vmax microplate reader (Molecular Devices). Under these conditions, less than 10% of the substrate is utilized in all assays. […] The apparent Ki values are then determined according to the Cheng-Prusoff equation (IC50=Ki [1+[S]/Km]) assuming competitive inhibition kinetics.

Chain of Factor Xa (P00742 235-488 limits assumed): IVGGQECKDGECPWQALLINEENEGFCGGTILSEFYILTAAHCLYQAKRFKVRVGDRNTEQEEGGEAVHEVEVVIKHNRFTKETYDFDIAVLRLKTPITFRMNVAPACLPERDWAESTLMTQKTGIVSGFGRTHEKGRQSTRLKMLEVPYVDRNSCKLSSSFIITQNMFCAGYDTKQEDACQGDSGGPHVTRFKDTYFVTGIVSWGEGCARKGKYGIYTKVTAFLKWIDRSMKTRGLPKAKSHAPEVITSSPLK
Chain of Factor Xa (P00742 41-179 partner limits assumed): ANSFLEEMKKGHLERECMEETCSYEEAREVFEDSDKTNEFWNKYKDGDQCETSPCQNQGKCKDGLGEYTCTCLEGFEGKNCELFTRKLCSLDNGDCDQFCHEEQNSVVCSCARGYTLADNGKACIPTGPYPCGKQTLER

O=C1[C@@H](NS(=O)(=O)c2cc3ccc(Cl)cc3s2)CCN1Cc1cc2ncccc2[nH]1 [Example 46, 6-Chloro-benzo[b]thiophene-2-sulfonic Acid [2-oxo-1-(1H-Pyrrolo[3,2-b]pyridin-2-ylmethyl)-pyrrolidin-3-(S)-yl]-amide Trifluoroacetate]
IC50: < 500 nM

— patent US6602864B1, “Sulfonic acid or sulfonylamino N-(heteroaralkyl)-azaheterocyclylamide compounds” (Aventis Pharma Deutschland GmbH, priority 1996, dated 2003)
